The source of these data is patent US9145415B2, “Nitrogen-containing heterocyclic compound or salt thereof” (FUJIFILM Corporation, priority 2012, dated 2015).

pIC50: −log10 of the molar value. Where two headings read alike, the source gives them in different places.

For assay [1], the target named is T1, human FLT3 protein (FLT3 (WT)) (Homo sapiens, UniProt P36888).
T1 construct: human FLT3 protein (intracellular region, 564 to 993 aa); GST; purchased Carna Biosciences; host or cells: baculovirus expression system
T1 sequence (P36888 564-993): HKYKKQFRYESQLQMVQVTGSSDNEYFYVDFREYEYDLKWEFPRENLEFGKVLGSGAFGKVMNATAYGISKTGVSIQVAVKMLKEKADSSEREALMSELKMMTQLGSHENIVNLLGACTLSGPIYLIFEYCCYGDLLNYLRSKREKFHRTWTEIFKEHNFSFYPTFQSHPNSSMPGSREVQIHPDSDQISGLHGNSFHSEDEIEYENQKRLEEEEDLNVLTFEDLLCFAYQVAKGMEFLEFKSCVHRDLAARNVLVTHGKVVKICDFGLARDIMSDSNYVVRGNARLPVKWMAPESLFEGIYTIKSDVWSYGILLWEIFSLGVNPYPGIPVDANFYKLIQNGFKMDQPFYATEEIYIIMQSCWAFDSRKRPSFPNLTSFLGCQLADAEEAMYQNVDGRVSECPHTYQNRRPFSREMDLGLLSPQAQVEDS
As to the kind of experiment: FLT3 inhibition test (FLT3 enzyme inhibition, time-resolved fluorescence of substrate peptide phosphorylation). The assay is classed as biochemical. The note with it: read-out: FLT3 (WT) enzyme inhibition activity. The method, boiled down: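 Substrate peptide phosphorylation detected by time-resolved fluorescence after a 30 min kinase reaction at 25° C with 50 μM ATP (final). Beforehand, compound and FLT3 (WT, 1.2 μg) stood 15 min at 25° C in HEPES buffer pH 7.5 containing MgCl2, NaCl, BSA and DTT.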

The subject of the next assay is MV4-11 cells. As to the kind of experiment: Leukemia cell proliferation inhibition test (ATPlite), MV4-11. The class given is cell-based. As to conditions: read-out: MV4-11 cell proliferation inhibition effect. A digest of the protocol: (§1)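 Molm-13 or MV4-11 cells at 10,000 cells/well in RPMI with 10% FBS and pen/strep were exposed to serially diluted compound for 72 h at 37 °C, 5% CO2. Total cellular ATP was read by luciferase luminescence. GI50 was taken relative to 0.1% DMSO control, from duplicates by sigmoid non-linear regression.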

A further assay relates to Molm-13 cells. The assay can be described thus: Leukemia cell proliferation inhibition test (ATPlite), Molm-13. The class given is cell-based. As to conditions: read-out: MOLM13 cell proliferation inhibition effect. The method, boiled down:
as §1
(In general: In ATP-based viability assays light output follows the ATP content of the culture.)

[2] abbreviates: Homo sapiens, MV4-11, MV4-11 cell.
Where [3] appears, read: Homo sapiens, MOLM-13, MOLM13 cell.
The mark [4] stands for this setting: GST-fused human FLT3 (564 to 993 aa), ATP 50 μM.
Where [5] appears, read: Homo sapiens, MV4-11, 72 h, MV4-11, 72 hours culture, ATPlite, GI50 per method.
Setting [6] is: Homo sapiens, MOLM-13, 72 h, Molm-13, 72 hours culture, ATPlite, GI50 per method.

Turning to `CCCNc1nc(Nc2ccc3cnn(CCOC)c3c2)ncc1C#CCCCNC(=O)[C@@H]1CCCN1C(=O)/C=C/CN(C)C` [Compound 22-33], the pIC50 (in assay [1] (FLT3 (WT)); in the assay with MV4-11 cells (setting [2]); with Molm-13 cells (setting [3])) was over 8.00 each time.
For the molecule `CCCNc1nc(Nc2cnc3ccccc3c2)ncc1C#CCCCNC(=O)[C@H](C)N(C)C(=O)/C=C/CN(C)C` [Compound 22-3], the results for the pIC50 (in assay [1] (FLT3 (WT)); in the assay on MV4-11 cells (setting [2]); with Molm-13 cells (setting [3])) were over 8.00, 7.00 to 8.00 and 7.00 to 8.00, respectively.
As to `COCCCNc1nc(Nc2ccc3cn[nH]c3c2)ncc1C#CCCCNC(=O)[C@@H]1CCCN1C(=O)/C=C/CN(C)C` [Compound 10-71], the pIC50 (in assay [1] (setting [4]); in the assay with MV4-11 cells (setting [5]); with Molm-13 cells (setting [6])) was over 8.00 throughout.
Turning to `C=CC(=O)NCCC(=O)Nc1cccc(NC(=O)c2cnc(NCCc3ccncc3)nc2NCCC)c1` [Compound 2-7], the pIC50 in assay [1] (setting [4]) was over 8.00; in the assay on MV4-11 cells (setting [5]) it was 7.00 to 8.00; in the assay on Molm-13 cells (setting [6]), 6.00 to 7.00.
In the case of `CNc1ncc(C#C[C@@H]2CCC[C@H](NC(=O)[C@H](C)N(C)C(=O)/C=C/CN(C)C)C2)c(Nc2ccc(F)cc2)n1` [Compound 21-37], the pIC50 (in assay [1] (FLT3 (WT)); in the assay with MV4-11 cells (setting [2]); in the assay on Molm-13 cells (setting [3])) was over 8.00 throughout.
`CCCNc1nc(Nc2ccc3sc(C)nc3c2)ncc1C#CCCCNC(=O)[C@H](C)N(C)C(=O)/C=C/CN(C)C` [Compound 22-7]: the pIC50 in assay [1] (FLT3 (WT)) was over 8.00; in the assay on MV4-11 cells (setting [2]), 7.00 to 8.00; in the assay with Molm-13 cells (setting [3]), 7.00 to 8.00.
Consider `CCCNc1nc(Nc2cnc3[nH]nc(OC)c3c2)ncc1C#CCCCNC(=O)[C@H](C)N(C)C(=O)/C=C/CN(C)C` [Compound 22-66], for which the pIC50 (in assay [1] (FLT3 (WT)); in the assay with MV4-11 cells (setting [2]); in the assay with Molm-13 cells (setting [3])) was over 8.00 in each case.
On to `CN(C)C/C=C/C(=O)N1CCC[C@H]1C(=O)NCCCC#Cc1cnc(Nc2ccc3cn[nH]c3c2)nc1NC1CC1` [Compound 10-75], for which the pIC50 (in assay [1] (setting [4]); in the assay on MV4-11 cells (setting [5]); in the assay with Molm-13 cells (setting [6])) was over 8.00 each time.
`CCCNc1nc(Nc2cnc3[nH]nc(C)c3c2)ncc1C#CCCCNC(=O)[C@@H]1CCCN1C(=O)/C=C/CN(C)C` [Compound 22-56, (S,E)-1-(4-(Dimethylamino)-2-butenoyl)-N-(5-(2-((3-methyl-1H-pyrazolo[3,4-b]pyridin-5-yl)amino)-4-(propylamino)pyrimidin-5-yl)-4-pentyn-1-yl)pyrrolidine-2-carboxamide]: the pIC50 (in assay [1] (FLT3 (WT)); in the assay on MV4-11 cells (setting [2]); in the assay with Molm-13 cells (setting [3])) was over 8.00 throughout.
`COc1ccc(Nc2nc(Nc3ccc(F)nc3)ncc2C#CCCCNC(=O)[C@H](C)N(C)C(=O)/C=C/CN(C)C)cc1` [Compound 7-22]: the pIC50 (in assay [1] (setting [4]); with MV4-11 cells (setting [5]); in the assay on Molm-13 cells (setting [6])) was over 8.00 throughout.
Take `C=CC(=O)NCC(=O)NC1CCCC(NC(=O)c2cnc(Nc3ccc(C(N)=O)cc3)nc2NCCC)C1` (stereo not drawn) [Compound 3-2]: the values for the pIC50 (in assay [1] (setting [4]); with MV4-11 cells (setting [5]); with Molm-13 cells (setting [6])) were over 8.00, 7.00 to 8.00 and 7.00 to 8.00, respectively.
With `CN(C)C/C=C/C(=O)N(C)CC(=O)NCCCC#Cc1cnc(Nc2ccc(F)cc2)nc1NCCCF` [Compound 10-21], the pIC50 (in assay [1] (setting [4]); in the assay with MV4-11 cells (setting [5]); in the assay on Molm-13 cells (setting [6])) was over 8.00 throughout.
With `CNc1nc(Nc2ccc(F)cc2)ncc1C#C[C@@H]1CCC[C@H](NC(=O)[C@H](C)N(C)C(=O)/C=C/CN(C)C)C1` [Compound 21-41], the pIC50 (in assay [1] (FLT3 (WT)); with MV4-11 cells (setting [2]); in the assay with Molm-13 cells (setting [3])) was over 8.00 in each case.
For `CCCNc1nc(Nc2ccnc(OC)c2)ncc1C#CCCCNC(=O)[C@@H]1C[C@H](O)CN1C(=O)/C=C/CN(C)C` [Compound 9-36], the pIC50 (in assay [1] (setting [4]); in the assay on MV4-11 cells (setting [5]); with Molm-13 cells (setting [6])) was over 8.00 each time.
With `C[C@@H](C(=O)NCCCC#Cc1cnc(Nc2ccnc(F)c2)nc1N1CCOCC1)N(C)C(=O)/C=C/CN(C)C` [Compound 9-11], the pIC50 (in assay [1] (setting [4]); in the assay with MV4-11 cells (setting [5]); in the assay on Molm-13 cells (setting [6])) was over 8.00 in each case.
As to `CCCNc1nc(Nc2ccc(C)cc2)ncc1C#CCCCNC(=O)[C@H](C)N(C)C(=O)/C=C/CN(C)C` [Compound 12-9], the figures for the pIC50 (in assay [1] (setting [4]); in the assay on MV4-11 cells (setting [5]); in the assay on Molm-13 cells (setting [6])) were over 8.00, 7.00 to 8.00 and 7.00 to 8.00, respectively.
As for `CCCNc1nc(Nc2ccc(C(N)=O)cc2)ncc1C(=O)NC1CCCC(NC(=O)CN(C)C(=O)/C=C/CN(C)C)C1` (stereo not drawn) [Compound 3-4, (E)-2-((4-Carbamoylphenyl)amino)-N-(3-(2-(4-(dimethylamino)-N-methyl-2-butenamido)actamido)cyclohexyl)-4-(propylamino)pyrimidine-5-carboxamide], the pIC50 (in assay [1] (setting [4]); with MV4-11 cells (setting [5]); in the assay with Molm-13 cells (setting [6])) was over 8.00 each time.
Consider `CCNc1nc(Nc2ccc(C#N)cc2)ncc1C#C[C@@H]1CCC[C@H](NC(=O)[C@H](C)N(C)C(=O)/C=C/CN(C)C)C1` [Compound 21-28], for which the pIC50 (in assay [1] (setting [4]); in the assay on MV4-11 cells (setting [5]); in the assay with Molm-13 cells (setting [6])) was over 8.00 in each case.
`C=CC(=O)NCC(=O)N1CCC(NC(=O)c2cnc(NCCc3ccncc3)nc2NCCC)CC1` [Compound 6-19]: the pIC50 (in assay [1] (setting [4]); with MV4-11 cells (setting [5]); with Molm-13 cells (setting [6])) was 7.00 to 8.00 throughout.
Regarding `CCCNc1nc(Nc2cccc(F)c2)ncc1C#CCCCNC(=O)[C@@H]1CCCN1C(=O)/C=C/CN(C)C` [Compound 7-45], the pIC50 is over 8.00 in assay [1] (setting [4]); over 8.00 with MV4-11 cells (MV4-11, 72 hours culture, ATPlite, GI50 per method); over 8.00 with Molm-13 cells (Molm-13, 72 hours culture, ATPlite, GI50 per method).
For `CCCNc1nc(Nc2ccc(C(N)=O)cc2)ncc1C(=O)Nc1ccc2nc(CNC(=O)/C=C/CN(C)C)[nH]c2c1` [Compound 3-18], the pIC50 is over 8.00 in assay [1] (setting [4]), under 6.00 in the assay with MV4-11 cells (setting [5]) and under 6.00 in the assay with Molm-13 cells (setting [6]).
`CNc1nc(Nc2ccc(F)cc2)ncc1C#CCCCNC(=O)[C@@H]1C[C@@H](F)CN1C(=O)/C=C/CN(C)C` [Compound 7-81, (2S,4R)-1-((E)-4-(Dimethylamino)-2-butenoyl)-4-fluoro-N-(5-(2-((4-fluorophenyl)amino)-4-(methylamino)pyrimidin-5-yl)-4-pentyn-1-yl)pyrrolidine-2-carboxamide]: the pIC50 (in assay [1] (setting [4]); in the assay on MV4-11 cells (setting [5]); in the assay on Molm-13 cells (setting [6])) was over 8.00 in each case.
Turning to `CCCN(C)c1nc(Nc2ccnc(F)c2)ncc1C#CCCCNC(=O)[C@H](C)N(C)C(=O)/C=C/CN(C)C` [Compound 9-10], the pIC50 (in assay [1] (setting [4]); with MV4-11 cells (setting [5]); in the assay with Molm-13 cells (setting [6])) was over 8.00 each time.
In the case of `CCCNc1nc(Nc2ccc(C#N)cc2)ncc1C#CCCCNC(=O)CN(CCC)C(=O)/C=C/CN(C)C` [Compound 7-64], the pIC50 (in assay [1] (setting [4]); with MV4-11 cells (setting [5]); in the assay with Molm-13 cells (setting [6])) was over 8.00 each time.
`CCCNc1nc(Nc2ccc(F)nc2)ncc1C#C[C@@H]1CCC[C@H](NC(=O)[C@H](C)N(C)C(=O)/C=C/CN(C)C)C1` [Compound 13-5]: the pIC50 (in assay [1] (setting [4]); in the assay with MV4-11 cells (setting [5]); in the assay on Molm-13 cells (setting [6])) was over 8.00 in each case.
Take `CC(C)Nc1nc(Nc2ccc(C#N)cc2)ncc1C#C[C@@H]1CCC[C@H](NC(=O)[C@H](C)N(C)C(=O)/C=C/CN(C)C)C1` [Compound 21-31]: the pIC50 (in assay [1] (FLT3 (WT)); with MV4-11 cells (setting [2]); in the assay with Molm-13 cells (setting [3])) was over 8.00 in each case.
For `CNc1nc(Nc2ccc3c(c2)c(F)nn3C)ncc1C#CCCCNC(=O)[C@H](C)N(C)C(=O)/C=C/CN(C)C` [Compound 21-49], the pIC50 in assay [1] (FLT3 (WT)) was 7.00 to 8.00; with MV4-11 cells (setting [2]), over 8.00; in the assay with Molm-13 cells (setting [3]) it was over 8.00.
In the case of `CN(C)C/C=C/C(=O)N1CCC[C@H]1C(=O)N[C@H]1C[C@@H](C#Cc2cnc(Nc3cccc(F)c3)nc2NC2CC2)C1` [Compound 15-11], the pIC50 (in assay [1] (setting [4]); in the assay on MV4-11 cells (setting [5]); in the assay on Molm-13 cells (setting [6])) was over 8.00 in each case.
As for `CCCNc1nc(NCCc2ccncc2)ncc1C(=O)Nc1cccc(NC(=O)CCNC(=O)/C=C/CN(C)C)c1` [Compound 2-10], the pIC50 in assay [1] (setting [4]) was over 8.00; in the assay with MV4-11 cells (setting [5]) it was 6.00 to 7.00; in the assay on Molm-13 cells (setting [6]) it was 6.00 to 7.00.
On to `CCNc1nc(Nc2cccc(F)c2)ncc1C#C[C@@H]1CCC[C@H](NC(=O)[C@H](C)N(C)C(=O)/C=C/CN(C)C)C1` [Compound 21-27], for which the pIC50 (in assay [1] (setting [4]); in the assay on MV4-11 cells (setting [5]); with Molm-13 cells (setting [6])) was over 8.00 throughout.
